“Also recorded” adds a separate entry of the source. Where a name gives a salt, the structure may show the parent alone. Read-outs that look alike come from different tables or passages of the source.
Tests used:
horse spleen apoferritin = biological target: T1, horse spleen apoferritin (Equus caballus, UniProt P02791); assay: 1-AMA/apoferritin fluorescence competition assay, qHTS in 1,536-well format; assay type: binding; details: for inhibition at 77 µM: read-out: inhibition at maximal concentrations in qHTS
T1 sequence (P02791 2-175 limits assumed): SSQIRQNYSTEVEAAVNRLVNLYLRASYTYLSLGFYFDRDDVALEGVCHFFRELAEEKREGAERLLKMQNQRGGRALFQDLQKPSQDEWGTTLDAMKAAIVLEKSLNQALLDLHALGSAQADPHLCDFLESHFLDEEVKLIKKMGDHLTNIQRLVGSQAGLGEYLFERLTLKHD
Protocol: The previously-reported apoferritin-1-AMA binding assay was miniaturized to 3 µL in 1,536-well plates.
Throughout the screen, reagent bottles and all liquid lines were made light-tight to minimize reagent degradation. Activity was computed as the normalized fluorescence response relative to free 1-AMA and 1-AMA/apoferritin complex values. Concentration–effect relationships were derived by using publicly-available curve-fitting algorithms developed in-house (http://ncgc.nih.gov/pub/openhts/). A four parameter Hill equation was fitted to the concentration-response data by minimizing the residual error between the modeled and observed responses.

apoferritin = biological target: T2, apoferritin (Equus caballus, UniProt P02791); assay: Isothermal titration calorimetry (ITC) of compound into apoferritin; details: for ITC evidence of binding (in words): enthalpogram
T2 sequence (P02791 2-175 limits assumed): T1 sequence (P02791 2-175 limits assumed)

[1] = computed directly from 1-AMA inhibition data, infinite value fixed to -70%, seven concentrations 77 µM to 25 nM, read-out: qHTS IC50

| SMILES | IC50 (horse spleen apoferritin; [1]) [µM] | Kd (apoferritin) [µM] | also measured |
| --- | --- | --- | --- |
| CC1(C)CCC2=C(O1)c1ccccc1C(=O)C2=O [L-2037, β-Lapachone] | 33 |  |  |
| Cc1ccc(O)c(/N=N/c2ccccc2)n1 [S-9186, SIB 1757] | 42 |  |  |
| O=Nc1ccc2oc(=O)ccc2c1 [N-8403, 6-Nitroso-1,2-benopyrone] | 107 | 37.9 |  |
| c1ccc([C@H]2CN3CCSC3=N2)cc1 [L-9756, (-)-Tetramisole hydrochloride] | 194 | 233 |  |
| CC(N)c1cccc(Cl)c1Cl (racemic) [D-103, (±)-2,3-Dichloro-alpha-methylbenzylamine hydrochloride] | 94 | 506 |  |
| Cc1cccc(C#Cc2ccccc2)n1 [M-5435, 6-Methyl-2-(phenylethynyl)pyridine] | 152 | 313 |  |
| N#C/C(=C\c1ccc(O)c(O)c1)C(N)=S [T-7540, Tyrphostin 47] | 219 | 189 |  |
| C=C1C(=O)O[C@H]2[C@H]1CC/C(C)=C/CC[C@@]1(C)O[C@@H]21 [P-0667, Parthenolide] | 68 | 35.9 |  |
| C#CCN(C)C(C)Cc1ccccc1 (stereo not drawn) [M-003, R-(-)-Deprenyl hydrochloride] |  | 74 | IC50 (horse spleen apoferritin): 100 µM |
| CCOC(=O)C(C)(C)Oc1ccc(Cl)cc1 [C-6643, Clofibrate] | 105 | 11.5 |  |
| S=C([S-])OC1CC2CC1C1CCCC21.[K+] (stereo not drawn) [T-8543, O-Tricyclo[5.2.1.0^2,6]dec-9-yl dithiocarbonate potassium salt] | 16 | 12.3 | ITC evidence of binding (in words) (apoferritin): clear exothermic binding behavior |
| Cc1cc(C(C)(C)C)cc(C)c1CC1=NCCN1 [X-6000, Xylometazoline hydrochloride] |  | 177 | IC50 (horse spleen apoferritin): 167 µM |
| O=c1oc(Cl)c(Cl)c2ccccc12 [D-7910, 3,4-Dichloroisocoumarin] | 129 |  |  |
| CC(C)c1cccc(C(C)C)c1O [D-126608, 2,6-diisopropylphenol (propofol)] |  | 5 | IC50 (horse spleen apoferritin): 67 µM; qHTS screen outcome (in words) (horse spleen apoferritin; LOPAC1280 screen with filters): successfully identified in this screen |
| Oc1ccc(C2CNCc3sccc32)cc1O (stereo not drawn) [S-3066, SKF-89626 hydrobromide] |  |  | inhibition at 77 µM (horse spleen apoferritin): ~30%; ITC evidence of binding (in words) (apoferritin): does not; also recorded: failed to provide convincing evidence of binding |
| CCSC(=N)Nc1ccc(C(F)(F)F)cc1 [T7188, TFPI hydrochloride] | 98 | 25.3 |  |
| COc1ccc2c(c1)/C(=C/c1cnc[nH]1)C(=O)N2 [S-1693, SU 9516] | 88 |  | inhibition at 77 µM (horse spleen apoferritin): ~30%; ITC evidence of binding (in words) (apoferritin): failed to provide convincing evidence of binding |
| CN(N=O)c1ccc(O)c(O)c1 [M-9440, Methyl-3,4-dephostatin] |  | 284 | IC50 (horse spleen apoferritin): 155 µM |

From paper PMC2746312, “A High-Throughput Approach for Identification of Novel General Anesthetics” (PLoS ONE, 2009)
